Assay results as given in patent US20260183302A1, “PDK1 REGULATORY COMPOUND AND COMPOSITION CONTAINING THE SAME” (PROVIBIO CO., LTD., priority 2024, published 2026).
pIC50: −log10 of the molar value.

Legend:
PDK1 = biological target: T1, PDK1 (Homo sapiens, UniProt O15530); assay: IC50 for inhibiting PDK1 kinase activity; format: biochemical
T1 construct: purchased Promega V9681
T1 sequence (O15530 1-556): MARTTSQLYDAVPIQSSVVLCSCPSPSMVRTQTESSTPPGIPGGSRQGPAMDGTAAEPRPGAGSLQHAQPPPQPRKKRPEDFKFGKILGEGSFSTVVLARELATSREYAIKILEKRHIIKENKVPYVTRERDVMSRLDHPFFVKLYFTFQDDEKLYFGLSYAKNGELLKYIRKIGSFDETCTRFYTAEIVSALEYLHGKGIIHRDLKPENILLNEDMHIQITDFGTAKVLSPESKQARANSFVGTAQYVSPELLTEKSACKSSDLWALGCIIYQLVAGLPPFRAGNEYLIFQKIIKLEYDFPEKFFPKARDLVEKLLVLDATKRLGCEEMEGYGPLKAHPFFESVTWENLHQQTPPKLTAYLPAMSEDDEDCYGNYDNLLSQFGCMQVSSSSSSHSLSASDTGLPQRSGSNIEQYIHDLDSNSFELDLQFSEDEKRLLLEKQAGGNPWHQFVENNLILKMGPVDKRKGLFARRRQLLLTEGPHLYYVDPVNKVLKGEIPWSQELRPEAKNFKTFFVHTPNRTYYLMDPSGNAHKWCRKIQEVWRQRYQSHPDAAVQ
Description: Additionally, enzyme kinetics analysis was performed to quantitatively analyze the effect of the compounds of the present invention on the enzymatic activity of PDK1 (3-Phosphoinositide-dependent protein kinase-1) and to confirm the inhibition pattern.
Prior to the analysis, the half-maximal inhibitory concentration (IC50) values of the compounds GO15F, GO86, and GO88 of the present invention for inhibiting PDK1 kinase activity were determined, and the results are shown in FIG. 4.

[1] = tested on: Human B Lymphocyte cell line, SU-DHL-8; assay: Relative cell viability, SU-DHL-8 (CCK-8); format: cell-based; details: 48 hours, untreated (DMSO) = 100%
Description: Human-derived B lymphoma cell line SU-DHL-8 (Cat. #CRL-2961) purchased from ATCC was cultured in RPMI-1640 medium containing 10% FBS, 100 U/mL penicillin, and 100 μg/mL streptomycin.
The cell culture medium was then harvested, centrifuged at 1,300 rpm for 5 minutes, and the supernatant was removed. The cells were resuspended in the same medium and dispensed into a 96-well plate (Costar 96-well cell culture plate, Corning) at 90 μL per well, resulting in the conditions specified in Table 5.
Then, 10 μL of CCK-8 was added to each well, and the plates were incubated again at 37° C. in a 5% CO2 incubator for 4 hours.
In other words, when the survival rate of untreated cells (DMSO) is set at 100%, the relative cell survival rate in each group treated with the drug at different concentrations is indicated.

[2] = tested on: HCT-116 colon cancer cell lines; assay: Matrigel Invasion Assay on HCT-116 colon cancer cell line; format: cell-based, human; details: HCT-116, Matrigel, 24 hours treatment, vs DMSO
Description: To evaluate the metastasis inhibitory efficacy of the compounds of the present invention on HCT-116 colon cancer cell lines, an Invasion Assay using Matrigel was performed to assess the cells' invasion ability.
First, Matrigel was thawed on ice in RPMI-1640 medium without FBS, then diluted with DMEM at a ratio of 1:20.
The diluted Matrigel mixture was applied to the upper chamber at 100 μl per well, and 750 μl of RPMI-1640 without FBS was added to the lower chamber.
The plates were then incubated at 37° C. for 1 hour to allow the Matrigel to solidify.
After coating, the Matrigel mixture in the upper chamber was removed using a pipette, and the chamber was washed with RPMI without FBS.
Human-derived colorectal cancer cell line HCT-116, obtained from the Korean Cell Bank, was cultured in RPMI-1640 medium containing 10% FBS.
Following stabilization, the cells were harvested using Trypsin-EDTA treatment, centrifuged at 1,200 rpm for 3 minutes, the supernatant was removed, and the cells were resuspended in the same medium, the medium in the lower chamber was replaced with 750 μl of RPMI-1640 supplemented with 10% FBS, and the cells were seeded into the upper chamber at a density of 5×10^4 cells/well.
The cells were cultured for 24 hours after attachment, and then the compounds according to the present invention (G078, G085, G086, G088, G089, PBK-2024-010, PBK-2025-010, PBK-2025-013, PBK-2025-016) and the control substance DMSO were diluted and added to the upper chamber after removing the medium.
Additionally, the medium in the lower chamber was replaced with fresh RPMI-1640 containing FBS, and the culture was continued.
After an additional 24 hours, the medium was removed, and 1 ml of methanol was added for 10 minutes to fix the cells.
Subsequently, 1 ml of Hematoxylin was added and reacted for 5 minutes, followed by 1 ml of Eosin, which was reacted for 30 seconds. The sample was then washed with distilled water (DW).
After staining was complete, any remaining cells in the upper chamber were removed. Finally, the infiltrated cells were observed under a microscope, photographed, and the degree of infiltration was analyzed.

[3] = tested on: NHDF (Normal Human Dermal Fibroblast) cells; assay: Anti-aging in doxorubicin/IGF-1 aged NHDF cells (SA-β-gal, Ki-67 FACS); format: cell-based; details: Doxorubicin (100 ng/ml) and IGF-1 (100 ng/ml), GO15F 0.01, 1 μM, 7 days
Description: To confirm the anti-aging and rejuvenating effects of the compound GO15F of the present invention, a NHDF (Normal Human Dermal Fibroblast, Promocell) cell model was established by inducing aging with doxorubicin (Doxorubicin), and β-galactosidase activity and Ki-67 expression were analyzed in the cells. First, NHDF cells were seeded at 1×10^4 cells per well in a 12-well plate and stabilized for 24 hours. […] After pre-incubation, the medium was removed, and the cells were cultured for 7 days in medium containing Doxorubicin (100 ng/ml) and IGF-1 (100 ng/ml) with GO15F. During this process, the medium was replaced with fresh medium every 2 days. The cultured cells were washed with PBS, fixed with 1× fixation buffer for 15 minutes, washed again with PBS, and then 300 μL of 1× working SA-β-gal buffer was added to each well. The cells were incubated at 37° C. for 24 hours. After the reaction was terminated, the cells were washed with PBS, and the […] of β-gal-positive cells stained blue was observed and photographed using a light microscope. Additionally, to investigate the effect of the compound (GO15F) of the present invention on proliferation activity in aging-induced NHDF (Normal Human Dermal Fibroblast) cells, Ki-67 expression was measured via FACS analysis. First, NHDF cells were seeded at 1×10^4 cells per well in a 12-well plate and stabilized for 24 hours. […]

pIC50 (PDK1) | Compound | Relative cell viability (%) ([1]; SU-DHL-8, 1 μM) | Relative cell viability (%) ([1]; SU-DHL-8, 10 μM) | Relative cell viability (%) ([1]; SU-DHL-8, 30 μM) | Relative cell viability (%) ([1]; SU-DHL-8, 50 μM) | number of infiltrated cells (invasion) [2] | β-galactosidase activity (β-gal-positive cells) [3]
7.95 | 12-[4-(2,2-dimethylmorpholin-4-yl)]dodecyl-N-(6-aminopurine-2-yl) carboxamide [Compound 11] | 7.63 | 6.09 | 4.82 | 3.29 | reduction in the number of infiltrated cells | –
– | Nc1ncccc1C(=O)NCCCCCCCCCCCCF [Compound 57, 2-Amino-N-(12-fluoro-dodecyl)-nicotinamide] | – | – | – | – | – | number of β-gal-positive cells decreased
